PMC10145310, “Optimization of Ultrasonic-Assisted Extraction of α-Glucosidase Inhibitors from Dryopteris crassirhizoma Using Artificial Neural Network and Response Surface Methodology” (Metabolites, 2023)

Legend:
RAW264.7 cells = system: RAW264.7 cells; set-up: method as in PMID 34971945; conditions: RAW264.7 cells induced with lipopolysaccharide; cited from earlier work
α-glucosidase = target: T1, α-glucosidase (Saccharomyces cerevisiae, UniProt P53341); assay: α-glucosidase inhibition assay (4-nitrophenyl-D-glucopyranoside substrate, 405 nm); type: biochemical; conditions: for inhibition at 100 µM: compound at 100 µM, mean ± SEM, triplicate
T1 construct: purchased Merck (Germany) G5003
T1 sequence (P53341 whole entry): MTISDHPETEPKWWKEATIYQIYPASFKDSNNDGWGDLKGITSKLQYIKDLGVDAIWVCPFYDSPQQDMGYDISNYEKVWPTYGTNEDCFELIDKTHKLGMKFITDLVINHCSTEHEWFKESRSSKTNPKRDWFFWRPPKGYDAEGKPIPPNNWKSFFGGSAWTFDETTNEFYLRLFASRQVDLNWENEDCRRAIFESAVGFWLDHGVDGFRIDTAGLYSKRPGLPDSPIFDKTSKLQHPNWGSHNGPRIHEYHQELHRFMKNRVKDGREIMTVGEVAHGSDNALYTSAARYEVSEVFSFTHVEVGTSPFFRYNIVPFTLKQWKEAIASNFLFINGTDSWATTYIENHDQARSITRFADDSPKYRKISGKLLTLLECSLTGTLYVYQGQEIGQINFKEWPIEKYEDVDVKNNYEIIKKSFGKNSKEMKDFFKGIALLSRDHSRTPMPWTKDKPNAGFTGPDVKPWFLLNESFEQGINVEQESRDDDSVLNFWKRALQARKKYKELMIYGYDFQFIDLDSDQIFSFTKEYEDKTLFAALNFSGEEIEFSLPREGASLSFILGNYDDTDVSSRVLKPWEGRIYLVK
Method: The α-glucosidase assay was performed as previously described. First, 130 μL of α-glucosidase (0.16 unit/mL) in 0.1 mM phosphate buffer (pH 6.8) was added to a 96-well plate with 20 μL of test compounds dissolved in dimethylsulfoxide. Then, 50 μL of 1 mM substrate (4-nitrophenyl-D-glucopyranoside) in the buffer was added to the mixture. The intensity of p-nitrophenol converted from 4-nitrophenyl-D-glucopyranoside by α-glucosidase was measured after […] at 405 nm using Infinite 200 PRO spectrophotometer (Tecan, Zürich, Switzerland). (1) Inhibitory activity rate (%)=[(ΔC−ΔS)/ΔC]×100 where ΔC and ΔS are the intensity of control and inhibitor after 20 min, respectively. […] The inhibitory effect was elucidated via triplicate independent experiments. […] Statistical differences were investigated using one-way ANOVA and Duncanʹs test with a p-value < 0.05. SigmaPlot 10.0 (Systat Software Inc., San Jose, CA, USA) was used to analyze the inhibition results.

PTP1B = system: PTP1B; set-up: method as in PMID 34416263; conditions: previous studies; cited from earlier work
β-glucuronidase = target: β-glucuronidase; set-up: method as in PMID 36295840; conditions: previous studies; cited from earlier work
[1] = system: platelet aggregation induced by collagen; set-up: method as in PMID 31200488; conditions: cited from earlier work
[2] = system: platelet aggregation induced by arachidonic acid; set-up: method as in PMID 31200488; conditions: cited from earlier work
SARS-CoV-2 = system: SARS-CoV-2; set-up: method as in PMID 35214108; conditions: Vero cells, immunofluorescence-based antiviral assays; cited from earlier work
influenza A virus H1N1 = system: influenza A virus H1N1; set-up: method as in PMID 34971945; conditions: cited from earlier work

In the case of 3″-epi-dryoptol G, the “effect on production of nitric oxide and secretion of IL-1β and IL-18” value (RAW264.7 cells) is listed as “significant inhibitory effects”.
For `C[C@H]1O[C@H](O[C@H]2[C@H](O)[C@@H](O)[C@@H](O[C@H]3[C@H](O)[C@@H](O)C(O)O[C@@H]3CO)O[C@@H]2CO)[C@H](O)[C@@H](O)[C@@H]1N[C@H]1C=C(CO)[C@@H](O)[C@H](O)[C@H]1O` (stereo partly shown) [Acarbose, acarbose], the inhibition at 100 µM (α-glucosidase) was 21.7 ± 1.43%.
With `CCC(=O)c1c(O)c(C)c(O)c(CC2=C(O)C(C)(C)C(O)=C(C(C)=O)C2=O)c1O` [Compound 1, flavaspidic acid AP] the inhibition at 100 µM (α-glucosidase) was less than 50%.
In the case of `CCCC(=O)c1c(O)cc(O)c(Cc2c(O)c(CC3=C(O)C(C)(C)C(O)=C(C(C)=O)C3=O)c(O)c(C(=O)CCC)c2O)c1O` [Compound 2, nortrisflavaspidic acid ABB], the IC50 (α-glucosidase) is given as 34 ± 0.14 µM, the inhibition at 100 µM (α-glucosidase) is given as greater than 50% and the IC50 (PTP1B) is given as 1.19 ± 0.13 µM. For the same molecule, the IC50 (β-glucuronidase) was 8 ± 1.8 µM.
For `CCCC(=O)c1c(O)cc(O)c(C)c1O` [butyryl-3-methylphloroglucinol], the “inhibition of platelet aggregation, ratio” value [1] is given as 92.36% and the “inhibition of platelet aggregation, ratio” value [2] is given as 89.51%.
For dryocrassin ABBA, the “inhibitory activity against SARS-CoV-2 infection” value (SARS-CoV-2) is given as “dose-dependent inhibitory activity”.
In the case of dryoptol G, the “effect on production of nitric oxide and secretion of IL-1β and IL-18” value (RAW264.7 cells) is given as “significant inhibitory effects”.
For filixic acid ABA, the “inhibitory activity against SARS-CoV-2 infection” value (SARS-CoV-2) is given as “dose-dependent inhibitory activity” and the “antiviral effect against influenza A virus H1N1” value (influenza A virus H1N1) is given as “responsible for the antiviral effect”.
